Experimental data: patent US20240217978A1 (CHONG KUN DANG PHARMACEUTICAL CORP., priority 2021, published 2024)

biological target: human adenosine A2a receptor (Homo sapiens (Human), UniProt P29274); experiment: A2a receptor binding affinity, [3H]-NECA radioligand binding test; conditions: [3H]-NECA 37 nM; membrane from HEK-293 cells transfected with human adenosine A2a receptor
In short: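 IC50 values (μM) come from displacement of [3H]-NECA, used at 37 nM final, on human A2a receptor membranes from transfected HEK-293 cells. Incubation lasted one hour at room temperature in Tris/MgCl2/EDTA buffer, pH 7.4; filter-bound radioactivity was counted by scintillation.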

Chain of human adenosine A2a receptor (P29274 whole entry): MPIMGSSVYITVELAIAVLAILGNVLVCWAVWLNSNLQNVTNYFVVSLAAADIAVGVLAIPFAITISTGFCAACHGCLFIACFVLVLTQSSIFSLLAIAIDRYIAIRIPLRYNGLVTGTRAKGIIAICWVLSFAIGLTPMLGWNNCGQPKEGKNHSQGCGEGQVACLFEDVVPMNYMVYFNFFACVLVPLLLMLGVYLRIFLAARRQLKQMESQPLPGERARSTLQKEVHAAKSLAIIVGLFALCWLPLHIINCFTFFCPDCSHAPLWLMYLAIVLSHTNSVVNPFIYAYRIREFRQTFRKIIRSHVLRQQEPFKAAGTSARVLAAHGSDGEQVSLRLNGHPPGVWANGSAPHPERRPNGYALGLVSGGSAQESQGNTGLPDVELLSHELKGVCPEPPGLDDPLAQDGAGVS

**Q.** How did the IC50 turn out when `Nc1nc(N2CCC[C@H]2C(=O)N2CCCN(CC(F)(F)F)CC2)nc2nc(-c3ccco3)nn12` [Example 278, (S)-(1-(7-amino-2-(furan-2-yl)-[1,2,4]triazolo[1,5-a][1,3,5]triazin-5-yl)pyrrolidin-2-yl)(4-(2,2,2-trifluoroethyl)-1,4-diazepan-1-yl)methanone] was run?
**A.** 20 nM

**Q.** For `Nc1nc(N2CC[C@H]2C(=O)N2CCN(CC(F)(F)C(F)(F)C(F)(F)F)CC2)nc2nc(-c3ccco3)nn12` [Example 257, (S)-(1-(7-amino-2-(furan-2-yl)-[1,2,4]triazolo[1,5-a][1,3,5]triazin-5-yl)azetidin-2-yl)(4-(2,2,3,3,4,4,4-heptafluorobutyl)piperazin-1-yl)methanone], which IC50 is on record?
**A.** 0.8 nM

**Q.** `CC(C)(F)CN1CCN(C(=O)[C@H](Cc2ccccc2)Nc2nc(N)n3nc(-c4ccco4)nc3n2)CC1` [Example 28, (S)-2-((7-amino-2-(furan-2-yl)-[1,2,4]triazolo[1,5-a][1,3,5]triazin-5-yl)amino)-1-(4-(2-fluoro-2-methylpropyl)piperazin-1-yl)-3-phenylpropan-1-one] was tested. Which IC50 did it give?
**A.** 8 nM

**Q.** How did the IC50 turn out when `Nc1nc(N2CCC[C@H]2C(=O)N2CCN(C(=O)CC(F)(F)F)CC2)nc2nc(-c3ccco3)nn12` [Example 73, 1-(4-((7-amino-2-(furan-2-yl)-[1,2,4]triazolo[1,5-a][1,3,5]triazin-5-yl)-L-prolyl)piperazin-1-yl)-3,3,3-trifluoropropan-1-one] was run?
**A.** 11 nM

**Q.** With `CCOC[C@H](Nc1nc(N)n2nc(-c3ccco3)nc2n1)C(=O)N1CCN(c2ncccn2)CC1` [Example 307, (S)-2-((7-amino-2-(furan-2-yl)-[1,2,4]triazolo[1,5-a][1,3,5]triazin-5-yl)amino)-3-ethoxy-1-(4-(pyrimidin-2-yl)piperazin-1-yl)propan-1-one] as the molecule, how does the IC50 read?
**A.** 7 nM

**Q.** For `CCCCN1CCN(C(=O)[C@@H]2CCCN2c2nc(N)n3nc(-c4ccc(C)o4)nc3n2)CC1` [Example 189, (S)-(1-(7-amino-2-(5-methylfuran-2-yl)-[1,2,4]triazolo[1,5-a][1,3,5]triazin-5-yl)pyrrolidin-2-yl)(4-butylpiperazin-1-yl)methanone], which IC50 is on record?
**A.** 9 nM

**Q.** `CCCCN1CCC(C2CCN(C(=O)[C@@H]3CCCN3c3nc(N)n4nc(-c5ccco5)nc4n3)CC2)CC1` [Example 265, (S)-(1-(7-amino-2-(furan-2-yl)-[1,2,4]triazolo[1,5-a][1,3,5]triazin-5-yl)pyrrolidin-2-yl)(1′-butyl-[4,4′-bipiperidin]-1-yl)methanone] was tested. Which IC50 did it give?
**A.** 44 nM

**Q.** For `CCC(F)(F)CN1CCN(C(=O)[C@@H]2CCCN2c2cc3nc(-c4ccco4)nn3c(N)n2)CC1` [Example 295, (S)-(1-(5-amino-2-(furan-2-yl)-[1,2,4]triazolo[1,5-c]pyrimidin-7-yl)pyrrolidin-2-yl)(4-(2,2-difluorobutyl)piperazin-1-yl)methanone], which IC50 is on record?
**A.** 1 nM

**Q.** How did the IC50 turn out when `Nc1nc(N2CCC[C@H]2C(=O)N2C3CCC2CN(C(=O)c2ccccc2)C3)nc2nc(-c3ccco3)nn12` [Example 158, (8-((7-amino-2-(furan-2-yl)-[1,2,4]triazolo[1,5-a][1,3,5]triazin-5-yl)-L-prolyl)-3,8-diazabicyclo[3.2.1]octan-3-yl)(phenyl)methanone] was run?
**A.** 12 nM

**Q.** `CC(C)(F)CN1CCN(C(=O)[C@@H]2CCN2c2nc(N)n3nc(-c4ccco4)nc3n2)CC1` [Example 108, (S)-(1-(7-amino-2-(furan-2-yl)-[1,2,4]triazolo[1,5-a][1,3,5]triazin-5-yl)azetidin-2-yl)(4-(2-fluoro-2-methylpropyl)piperazin-1-yl)methanone] was tested. Which IC50 did it give?
**A.** 9 nM

**Q.** How did the IC50 turn out when `Nc1nc(N[C@@H](CO)C(=O)N2CCN(c3ncccn3)CC2)nc2nc(-c3ccco3)nn12` [Example 235, (S)-2-((7-amino-2-(furan-2-yl)-[1,2,4]triazolo[1,5-a][1,3,5]triazin-5-yl)amino)-3-hydroxy-1-(4-(pyrimidin-2-yl)piperazin-1-yl)propan-1-one] was run?
**A.** 10 nM

**Q.** How did the IC50 turn out when `Cc1ccc(-c2nc3nc(N4CCC[C@H]4C(=O)N4CCN(c5ncccn5)CC4)nc(N)n3n2)o1` [Example 203, (S)-(1-(7-amino-2-(5-methylfuran-2-yl)-[1,2,4]triazolo[1,5-a][1,3,5]triazin-5-yl)pyrrolidin-2-yl)(4-(pyrimidin-2-yl)piperazin-1-yl)methanone] was run?
**A.** 6 nM

**Q.** With `C[C@H](Nc1nc(N)n2nc(-c3ccco3)nc2n1)C(=O)N1CCC2(CC1)CN(Cc1ccc(F)cc1F)C2` [Example 31, (S)-2-((7-amino-2-(furan-2-yl)-[1,2,4]triazolo[1,5-a][1,3,5]triazin-5-yl)amino)-1-(2-(2,4-difluorobenzyl)-2,7-diazaspiro[3.5]nonan-7-yl)propan-1-one] as the molecule, how does the IC50 read?
**A.** 1 nM

**Q.** With `Nc1nc(N[C@H](C(=O)N2CCN(c3ccc(F)cc3F)CC2)C2CCCC2)nc2nc(-c3ccco3)nn12` [Example 170, (S)-2-((7-amino-2-(furan-2-yl)-[1,2,4]triazolo[1,5-a][1,3,5]triazin-5-yl)amino)-2-cyclopentyl-1-(4-(2,4-difluorophenyl)piperazin-1-yl)ethan-1-one] as the molecule, how does the IC50 read?
**A.** 1 nM

**Q.** Which IC50 does the source give for `Nc1nc(N2CCC[C@H]2C(=O)N2CCN(c3nccs3)CC2)nc2nc(-c3ccco3)nn12` [Example 125, 2-(4-((7-amino-2-(furan-2-yl)-[1,2,4]triazolo[1,5-a][1,3,5]triazin-5-yl)-L-prolyl)piperazin-1-yl)thiazole] here?
**A.** 9 nM

**Q.** For `C[C@H](Nc1nc(N)n2nc(-c3ccco3)nc2n1)C(=O)N1CCC(C2CCN(CC(C)(C)O)CC2)CC1` [Example 333, (S)-2-((7-amino-2-(furan-2-yl)-[1,2,4]triazolo[1,5-a][1,3,5]triazin-5-yl)amino)-1-(1′-(2-hydroxy-2-methylpropyl)-[4,4′-bipiperidin]-1-yl)propan-1-one], which IC50 is on record?
**A.** 9 nM

**Q.** `Nc1nc(N2CCC[C@H]2C(=O)N2CCN(CC(F)(F)F)CC2)nc2nc(-c3ccco3)nn12` [Example 48, (S)-(1-(7-amino-2-(furan-2-yl)-[1,2,4]triazolo[1,5-a][1,3,5]triazin-5-yl)pyrrolidin-2-yl)(4-(2,2,2-trifluoroethyl)piperazin-1-yl)methanone] was tested. Which IC50 did it give?
**A.** 13 nM

**Q.** With `CCCCN1CCN(C(=O)[C@@H]2CCCN2c2cc3nc(-c4ccco4)nn3c(N)n2)CC1` [Example 361, (S)-(1-(5-amino-2-(furan-2-yl)-[1,2,4]triazolo[1,5-c]pyrimidin-7-yl)pyrrolidin-2-yl)(4-butylpiperazin-1-yl)methanone] as the molecule, how does the IC50 read?
**A.** 9 nM

**Q.** How did the IC50 turn out when `CN(CC(F)(F)F)C1CCN(C(=O)[C@@H]2CCCN2c2nc(N)n3nc(-c4ccco4)nc3n2)CC1` [Example 337, (S)-(1-(7-amino-2-(furan-2-yl)-[1,2,4]triazolo[1,5-a][1,3,5]triazin-5-yl)pyrrolidin-2-yl)(4-(methyl(2,2,2-trifluoroethyl)amino)piperidin-1-yl)methanone] was run?
**A.** 9 nM

**Q.** `Nc1nc(N2CCC[C@H]2C(=O)N2CCN(C(=O)c3ccccc3)CC2)nc2nc(-c3ccco3)nn12` [Example 46] was tested. Which IC50 did it give?
**A.** 6 nM

**Q.** With `Nc1nc(N2CCCC[C@H]2C(=O)N2CCN(CC(F)(F)C(F)(F)F)CC2)nc2nc(-c3ccco3)nn12` [Example 280, (S)-(1-(7-amino-2-(furan-2-yl)-[1,2,4]triazolo[1,5-a][1,3,5]triazin-5-yl)piperidin-2-yl)(4-(2,2,3,3,3-pentafluoropropyl)piperazin-1-yl)methanone] as the molecule, how does the IC50 read?
**A.** 9 nM

**Q.** With `Nc1nc(N[C@@H](Cc2ccccc2)C(=O)N2CCN(CC(F)(F)F)CC2)nc2nc(-c3ccco3)nn12` [Example 4] as the molecule, how does the IC50 read?
**A.** 0.458 nM

**Q.** How did the IC50 turn out when `CCCCN1CCN(C(=O)[C@@H]2CCCN2c2nc(N)c3nc(-c4ccc(C)o4)sc3n2)CC1` [Example 243, (S)-(1-(7-amino-2-(5-methylfuran-2-yl)thiazolo[5,4-d]pyrimidin-5-yl)pyrrolidin-2-yl)(4-butylpiperazin-1-yl)methanone] was run?
**A.** 14 nM

**Q.** With `CC(C)C(=O)N1CCN(C(=O)[C@H](Cc2ccccc2)Nc2nc(N)n3nc(-c4ccco4)nc3n2)CC1` [Example 5, (S)-2-((7-amino-2-(furan-2-yl)-[1,2,4]triazolo[1,5-a][1,3,5]triazin-5-yl)amino)-1-(4-isobutyrylpiperazin-1-yl)-3-phenylpropan-1-one] as the molecule, how does the IC50 read?
**A.** 1.26 nM

**Q.** How did the IC50 turn out when `Nc1nc(N2CC3(CC3)C[C@H]2C(=O)N2CCN(CC(F)(F)F)CC2)nc2nc(-c3ccco3)nn12` [Example 385, (S)-(5-(7-amino-2-(furan-2-yl)-[1,2,4]triazolo[1,5-a][1,3,5]triazin-5-yl)-5-azaspiro[2.4]heptan-6-yl)(4-(2,2,2-trifluoroethyl)piperazin-1-yl)methanone] was run?
**A.** 0.8 nM

**Q.** Which IC50 does the source give for `CC(F)(F)CN1CCC(C2CCN(C(=O)[C@@H]3CCN3c3cc4nc(-c5ccco5)nn4c(N)n3)CC2)CC1` [Example 379, (S)-(1-(5-amino-2-(furan-2-yl)-[1,2,4]triazolo[1,5-c]pyrimidin-7-yl)azetidin-2-yl)(1′-(2,2-difluoropropyl)-[4,4′-bipiperidin]-1-yl)methanone] here?
**A.** 2 nM

**Q.** Which IC50 does the source give for `Nc1nc(N2CC[C@H]2C(=O)N2CCN(CC(F)(F)C(F)F)CC2)nc2nc(-c3ccco3)nn12` [Example 255, (S)-(1-(7-amino-2-(furan-2-yl)-[1,2,4]triazolo[1,5-a][1,3,5]triazin-5-yl)azetidin-2-yl)(4-(2,2,3,3-tetrafluoropropyl)piperazin-1-yl)methanone] here?
**A.** 9 nM

**Q.** How did the IC50 turn out when `CC(F)(F)CN1CCN(C(=O)[C@@H]2CCCN2c2nc(N)n3nc(-c4ccco4)nc3n2)C2(CC2)C1` [Example 343, (S)-(1-(7-amino-2-(furan-2-yl)-[1,2,4]triazolo[1,5-a][1,3,5]triazin-5-yl)pyrrolidin-2-yl)(7-(2,2-difluoropropyl)-4,7-diazaspiro[2.5]octan-4-yl)methanone] was run?
**A.** 9 nM

**Q.** How did the IC50 turn out when `Nc1nc(N2CCC[C@H]2C(=O)N2CCN(S(=O)(=O)CC3CC3)CC2)nc2nc(-c3ccco3)nn12` [Example 68, (S)-(1-(7-amino-2-(furan-2-yl)-[1,2,4]triazolo[1,5-a][1,3,5]triazin-5-yl)pyrrolidin-2-yl)(4-((cyclopropylmethyl)sulfonyl)piperazin-1-yl)methanone] was run?
**A.** 9 nM
